In patent publication US20190330275A1 (priority 2016, published 2019):
Entries after “also recorded” stand apart in the source; their conditions may differ. Peptide text beside a SMILES is read from it.

Key:
rat α3β4 nAChR = rat α3β4 nAChR (Rattus norvegicus, UniProt P04757+P12392); test: cell-based
rat α6/α3β4 nAChR = rat α6/α3β4 nAChR (Rattus norvegicus, UniProt P04757+P12392+P43143); test: cell-based
[1] = α6/α3β4 IC50 (half-blocking dose)

rat α3β4 nAChR, sequence (P04757 26-499 limits assumed): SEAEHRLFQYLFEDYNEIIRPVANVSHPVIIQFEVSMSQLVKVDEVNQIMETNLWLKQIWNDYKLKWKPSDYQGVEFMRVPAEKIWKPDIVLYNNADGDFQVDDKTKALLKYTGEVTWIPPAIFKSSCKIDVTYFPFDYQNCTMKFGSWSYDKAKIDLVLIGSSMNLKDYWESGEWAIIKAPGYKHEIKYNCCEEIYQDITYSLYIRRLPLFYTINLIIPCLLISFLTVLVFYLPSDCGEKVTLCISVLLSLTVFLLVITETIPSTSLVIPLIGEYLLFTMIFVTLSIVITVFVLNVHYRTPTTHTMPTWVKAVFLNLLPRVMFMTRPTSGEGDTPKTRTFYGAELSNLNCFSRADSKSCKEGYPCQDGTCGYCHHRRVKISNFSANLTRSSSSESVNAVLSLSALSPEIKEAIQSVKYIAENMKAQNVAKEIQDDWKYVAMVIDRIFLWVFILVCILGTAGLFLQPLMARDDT
rat α3β4 nAChR, sequence (P12392 21-495 limits assumed): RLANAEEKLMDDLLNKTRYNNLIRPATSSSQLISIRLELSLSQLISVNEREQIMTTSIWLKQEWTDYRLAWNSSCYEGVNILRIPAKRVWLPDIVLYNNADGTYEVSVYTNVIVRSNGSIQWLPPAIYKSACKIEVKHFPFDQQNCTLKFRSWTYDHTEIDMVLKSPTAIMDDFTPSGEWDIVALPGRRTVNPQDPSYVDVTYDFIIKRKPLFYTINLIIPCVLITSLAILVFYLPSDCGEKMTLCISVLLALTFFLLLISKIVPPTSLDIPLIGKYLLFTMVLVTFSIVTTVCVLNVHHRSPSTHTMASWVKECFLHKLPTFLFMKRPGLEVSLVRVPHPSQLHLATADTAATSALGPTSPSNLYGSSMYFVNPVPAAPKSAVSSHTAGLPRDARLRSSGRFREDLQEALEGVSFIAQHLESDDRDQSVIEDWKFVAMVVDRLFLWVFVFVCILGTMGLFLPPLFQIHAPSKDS
rat α6/α3β4 nAChR, sequence (P04757 whole entry, looked up): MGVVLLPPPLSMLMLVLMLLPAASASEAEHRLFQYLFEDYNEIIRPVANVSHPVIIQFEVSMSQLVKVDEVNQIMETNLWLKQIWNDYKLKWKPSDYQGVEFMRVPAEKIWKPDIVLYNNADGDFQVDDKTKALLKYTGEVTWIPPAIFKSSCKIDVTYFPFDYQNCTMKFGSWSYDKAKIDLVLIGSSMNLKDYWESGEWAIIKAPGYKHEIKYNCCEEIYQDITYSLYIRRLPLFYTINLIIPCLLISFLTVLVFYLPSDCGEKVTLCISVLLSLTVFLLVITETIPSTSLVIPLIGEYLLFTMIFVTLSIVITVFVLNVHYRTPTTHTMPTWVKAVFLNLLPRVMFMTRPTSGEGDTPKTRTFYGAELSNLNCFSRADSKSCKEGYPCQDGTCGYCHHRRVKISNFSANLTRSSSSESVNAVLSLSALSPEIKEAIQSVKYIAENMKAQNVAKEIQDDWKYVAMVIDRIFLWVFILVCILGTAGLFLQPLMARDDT
rat α6/α3β4 nAChR, sequence (P12392 whole entry, looked up): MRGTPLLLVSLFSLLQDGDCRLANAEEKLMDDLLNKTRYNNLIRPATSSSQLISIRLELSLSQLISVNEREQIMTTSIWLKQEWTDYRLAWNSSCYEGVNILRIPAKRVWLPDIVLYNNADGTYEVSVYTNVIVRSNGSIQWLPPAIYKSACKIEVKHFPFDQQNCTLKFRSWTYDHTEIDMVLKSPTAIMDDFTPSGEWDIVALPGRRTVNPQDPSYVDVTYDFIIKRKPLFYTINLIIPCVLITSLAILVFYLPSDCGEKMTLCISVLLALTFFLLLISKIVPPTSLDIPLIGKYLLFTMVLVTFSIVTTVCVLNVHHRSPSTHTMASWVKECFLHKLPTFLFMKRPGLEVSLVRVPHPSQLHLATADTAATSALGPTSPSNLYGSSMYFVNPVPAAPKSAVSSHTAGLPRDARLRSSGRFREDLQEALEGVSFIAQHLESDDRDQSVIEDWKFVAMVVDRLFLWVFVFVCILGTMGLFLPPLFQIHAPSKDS
rat α6/α3β4 nAChR, sequence (P43143 whole entry, looked up): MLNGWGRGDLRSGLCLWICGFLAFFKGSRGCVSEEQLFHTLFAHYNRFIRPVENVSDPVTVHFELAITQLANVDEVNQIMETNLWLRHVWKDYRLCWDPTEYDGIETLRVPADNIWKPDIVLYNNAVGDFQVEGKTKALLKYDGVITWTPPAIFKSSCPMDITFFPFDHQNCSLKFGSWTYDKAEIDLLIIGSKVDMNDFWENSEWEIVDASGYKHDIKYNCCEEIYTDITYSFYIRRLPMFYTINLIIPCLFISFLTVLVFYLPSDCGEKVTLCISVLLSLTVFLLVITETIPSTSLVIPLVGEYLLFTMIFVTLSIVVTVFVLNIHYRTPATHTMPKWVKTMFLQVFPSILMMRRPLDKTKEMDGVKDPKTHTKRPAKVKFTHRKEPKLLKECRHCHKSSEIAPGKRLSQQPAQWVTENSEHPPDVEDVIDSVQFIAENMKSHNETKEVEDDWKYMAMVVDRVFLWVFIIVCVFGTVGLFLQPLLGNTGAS

SMILES	α3β4 IC50 ratio (rat α3β4 nAChR)	IC50 ratio of α6/α3β4 vs. α3β4 (Discrimination) (rat α6/α3β4 nAChR)	α6/α3β4 IC50 ratio (rat α6/α3β4 nAChR)	IC50 (rat α3β4 nAChR; α3β4 IC50 (half-blocking dose)) [nM]	IC50 (rat α6/α3β4 nAChR; [1]) [nM]	also measured
CC[C@H](C)[C@@H]1NC(=O)[C@@H]2CCCN2C(=O)[C@H](C)NC(=O)[C@H](CCSC)NC(=O)[C@H](C)NC(=O)[C@H](CO)NC(=O)[C@@H]2CSSC[C@H](NC(=O)CN)C(=O)N[C@@H](CSSC[C@@H](C(N)=O)NC1=O)C(=O)N[C@@H](CO)C(=O)N[C@@H](Cc1c[nH]cn1)C(=O)N1CCC[C@H]1C(=O)N[C@@H](C(C)C)C(=O)N2 [TxID[S12A]] (HELM PEPTIDE1{G.C.C.S.H.P.V.C.S.A.M.A.P.I.C.[am]}$PEPTIDE1,PEPTIDE1,2:R3-8:R3|PEPTIDE1,PEPTIDE1,3:R3-15:R3$$$V2.0)	4.8	2.3	1.2			
CSCC[C@@H]1NC(=O)[C@H](C)NC(=O)[C@H](CO)NC(=O)[C@@H]2CSSC[C@H](NC(=O)CN)C(=O)N[C@@H](CSSC[C@@H](C(N)=O)NC(=O)[C@H](Cc3ccc(O)cc3)NC(=O)[C@@H]3CCCN3C(=O)[C@H](CO)NC1=O)C(=O)N[C@@H](CO)C(=O)N[C@@H](Cc1c[nH]cn1)C(=O)N1CCC[C@H]1C(=O)N[C@@H](C(C)C)C(=O)N2 [TxID[I14Y]] (HELM PEPTIDE1{G.C.C.S.H.P.V.C.S.A.M.S.P.Y.C.[am]}$PEPTIDE1,PEPTIDE1,2:R3-8:R3|PEPTIDE1,PEPTIDE1,3:R3-15:R3$$$V2.0)	2.7	3.9	1.1	10	38.7	
CSCC[C@@H]1NC(=O)[C@H](C)NC(=O)[C@H](CO)NC(=O)[C@@H]2CSSC[C@H](NC(=O)CN)C(=O)N[C@@H](CSSC[C@@H](C(N)=O)NC(=O)[C@H](CC(=O)O)NC(=O)[C@@H]3CCCN3C(=O)[C@H](CO)NC1=O)C(=O)N[C@@H](CO)C(=O)N[C@@H](Cc1c[nH]cn1)C(=O)N1CCC[C@H]1C(=O)N[C@@H](C(C)C)C(=O)N2 [TxID[I14D]] (HELM PEPTIDE1{G.C.C.S.H.P.V.C.S.A.M.S.P.D.C.[am]}$PEPTIDE1,PEPTIDE1,2:R3-8:R3|PEPTIDE1,PEPTIDE1,3:R3-15:R3$$$V2.0)	2.7	4.2	1.2	9.8	40.8	
CC[C@H](C)[C@@H]1NC(=O)[C@@H]2CCCN2C(=O)[C@H](CO)NC(=O)[C@H](CCSC)NC(=O)[C@H](C)NC(=O)[C@H](CCC(=O)O)NC(=O)[C@@H]2CSSC[C@H](NC(=O)CN)C(=O)N[C@@H](CSSC[C@@H](C(N)=O)NC1=O)C(=O)N[C@@H](CO)C(=O)N[C@@H](Cc1c[nH]cn1)C(=O)N1CCC[C@H]1C(=O)N[C@@H](C(C)C)C(=O)N2 [TxID[S9E]] (HELM PEPTIDE1{G.C.C.S.H.P.V.C.E.A.M.S.P.I.C.[am]}$PEPTIDE1,PEPTIDE1,2:R3-8:R3|PEPTIDE1,PEPTIDE1,3:R3-15:R3$$$V2.0)						binding (blocking) activity to α3β4 nAChR compared with wild type TxID (rat α3β4 nAChR): weak; binding (blocking) activity to α6/α3β4 nAChR compared with wild type TxID (rat α6/α3β4 nAChR): completely lost; also recorded: completely loses the binding activity; blocking effect on the current of rat α6/α3β4 nAChRs (rat α6/α3β4 nAChR): no blocking activity; also recorded: no blocking effect
CC[C@H](C)[C@@H]1NC(=O)[C@@H]2CCCN2C(=O)[C@H](Cc2ccc(O)cc2)NC(=O)[C@H](CCSC)NC(=O)[C@H](C)NC(=O)[C@H](CO)NC(=O)[C@@H]2CSSC[C@H](NC(=O)CN)C(=O)N[C@@H](CSSC[C@@H](C(N)=O)NC1=O)C(=O)N[C@@H](CO)C(=O)N[C@@H](Cc1c[nH]cn1)C(=O)N1CCC[C@H]1C(=O)N[C@@H](C(C)C)C(=O)N2 [TxID[S12Y]] (HELM PEPTIDE1{G.C.C.S.H.P.V.C.S.A.M.Y.P.I.C.[am]}$PEPTIDE1,PEPTIDE1,2:R3-8:R3|PEPTIDE1,PEPTIDE1,3:R3-15:R3$$$V2.0)	2.5	3.8	1.0	9.09	34.2	
CC[C@H](C)[C@@H]1NC(=O)[C@@H]2CCCN2C(=O)[C@H](CO)NC(=O)[C@H](CCSC)NC(=O)[C@H](C)NC(=O)[C@H]([C@@H](C)O)NC(=O)[C@@H]2CSSC[C@H](NC(=O)CN)C(=O)N[C@@H](CSSC[C@@H](C(N)=O)NC1=O)C(=O)N[C@@H](CO)C(=O)N[C@@H](Cc1c[nH]cn1)C(=O)N1CCC[C@H]1C(=O)N[C@@H](C(C)C)C(=O)N2 [TxID[S9T]] (HELM PEPTIDE1{G.C.C.S.H.P.V.C.T.A.M.S.P.I.C.[am]}$PEPTIDE1,PEPTIDE1,2:R3-8:R3|PEPTIDE1,PEPTIDE1,3:R3-15:R3$$$V2.0)						binding (blocking) activity to α3β4 nAChR compared with wild type TxID (rat α3β4 nAChR): not significantly different from the activity of the wild type TxID; binding (blocking) activity to α6/α3β4 nAChR compared with wild type TxID (rat α6/α3β4 nAChR): not significantly different from the activity of the wild type TxID
CC[C@H](C)[C@@H]1NC(=O)[C@H](CC(=O)O)NC(=O)[C@@H]2CCCN2C(=O)[C@H](CO)NC(=O)[C@H](CCSC)NC(=O)[C@H](C)NC(=O)[C@H](CO)NC(=O)[C@@H]2CSSC[C@H](NC(=O)CN)C(=O)N[C@@H](CSSC[C@@H](C(N)=O)NC1=O)C(=O)N[C@@H](CO)C(=O)N[C@@H](Cc1c[nH]cn1)C(=O)N1CCC[C@H]1C(=O)N[C@@H](C(C)C)C(=O)N2 [TxID[14D]] (HELM PEPTIDE1{G.C.C.S.H.P.V.C.S.A.M.S.P.D.I.C.[am]}$PEPTIDE1,PEPTIDE1,2:R3-8:R3|PEPTIDE1,PEPTIDE1,3:R3-16:R3$$$V2.0)	14.1	44.7	66.6	50.6	2260	IC50 (rat α6/α3β4 nAChR; α6/α3β4 IC50): 1000 to 10000 nM
CC[C@H](C)[C@@H]1NC(=O)[C@@H]2CCCN2C(=O)[C@H](CO)NC(=O)[C@H](CCSC)NC(=O)[C@H](C)NC(=O)[C@H](CO)NC(=O)[C@@H]2CSSC[C@H](NC(=O)CN)C(=O)N[C@@H](CSSC[C@@H](C(N)=O)NC1=O)C(=O)N[C@@H](CO)C(=O)N[C@@H](Cc1c[nH]c3ccccc13)C(=O)N1CCC[C@H]1C(=O)N[C@@H](C(C)C)C(=O)N2 [TxID[H5W]] (HELM PEPTIDE1{G.C.C.S.W.P.V.C.S.A.M.S.P.I.C.[am]}$PEPTIDE1,PEPTIDE1,2:R3-8:R3|PEPTIDE1,PEPTIDE1,3:R3-15:R3$$$V2.0)				> 10000	> 10000	
CC[C@H](C)[C@@H]1NC(=O)[C@@H]2CCCN2C(=O)[C@H](CO)NC(=O)[C@H](CCSC)NC(=O)[C@H](C)NC(=O)[C@H](CO)NC(=O)[C@@H]2CSSC[C@H](NC(=O)CN)C(=O)N[C@@H](CSSC[C@@H](C(N)=O)NC1=O)C(=O)N[C@@H](C)C(=O)N[C@@H](Cc1c[nH]cn1)C(=O)N1CCC[C@H]1C(=O)N[C@@H](C(C)C)C(=O)N2 [TxID[S4A]] (HELM PEPTIDE1{G.C.C.A.H.P.V.C.S.A.M.S.P.I.C.[am]}$PEPTIDE1,PEPTIDE1,2:R3-8:R3|PEPTIDE1,PEPTIDE1,3:R3-15:R3$$$V2.0)	3.0	5.9	1.9			
CC[C@H](C)[C@@H]1NC(=O)[C@@H]2CCCN2C(=O)[C@H](CO)NC(=O)[C@H](CCSC)NC(=O)[C@H](C)NC(=O)[C@H](Cc2ccc(O)cc2)NC(=O)[C@@H]2CSSC[C@H](NC(=O)CN)C(=O)N[C@@H](CSSC[C@@H](C(N)=O)NC1=O)C(=O)N[C@@H](CO)C(=O)N[C@@H](Cc1c[nH]cn1)C(=O)N1CCC[C@H]1C(=O)N[C@@H](C(C)C)C(=O)N2 [TxID[S9Y]] (HELM PEPTIDE1{G.C.C.S.H.P.V.C.Y.A.M.S.P.I.C.[am]}$PEPTIDE1,PEPTIDE1,2:R3-8:R3|PEPTIDE1,PEPTIDE1,3:R3-15:R3$$$V2.0)						binding (blocking) activity to α3β4 nAChR compared with wild type TxID (rat α3β4 nAChR): not significantly different from the activity of the wild type TxID; blocking of rat α3β4 nAChRs current (rat α3β4 nAChR): strong blocking activities; current after 2 min of elution (rat α3β4 nAChR): ~0 nA; elution after blocking the α3β4 nAChR current (rat α3β4 nAChR): very slow; binding (blocking) activity to α6/α3β4 nAChR compared with wild type TxID (rat α6/α3β4 nAChR): not significantly different from the activity of the wild type TxID
CC[C@H](C)[C@@H]1NC(=O)[C@@H]2CCCN2C(=O)[C@H](CO)NC(=O)[C@H](CCSC)NC(=O)[C@H](C)NC(=O)[C@H](Cc2ccccc2)NC(=O)[C@@H]2CSSC[C@H](NC(=O)CN)C(=O)N[C@@H](CSSC[C@@H](C(N)=O)NC1=O)C(=O)N[C@@H](CO)C(=O)N[C@@H](Cc1cnc[nH]1)C(=O)N1CCC[C@H]1C(=O)N[C@@H](C(C)C)C(=O)N2 [TxID[S9F]] (HELM PEPTIDE1{G.C.C.S.H.P.V.C.F.A.M.S.P.I.C.[am]}$PEPTIDE1,PEPTIDE1,2:R3-8:R3|PEPTIDE1,PEPTIDE1,3:R3-15:R3$$$V2.0)				13.9	7.11	IC50 (rat α3β4 nAChR; α3β4 IC50): 10.7 nM; IC50 (rat α6/α3β4 nAChR; α6/α3β4 IC50): 10.2 nM
CC[C@H](C)[C@@H]1NC(=O)[C@@H]2CCCN2C(=O)[C@H](CO)NC(=O)[C@H](CCSC)NC(=O)[C@H](C)NC(=O)[C@H](C)NC(=O)[C@@H]2CSSC[C@H](NC(=O)CN)C(=O)N[C@@H](CSSC[C@@H](C(N)=O)NC1=O)C(=O)N[C@@H](CO)C(=O)N[C@@H](Cc1c[nH]c3ccccc13)C(=O)N1CCC[C@H]1C(=O)N[C@@H](C(C)C)C(=O)N2 [TxID[H5W, S9A]] (HELM PEPTIDE1{G.C.C.S.W.P.V.C.A.A.M.S.P.I.C.[am]}$PEPTIDE1,PEPTIDE1,2:R3-8:R3|PEPTIDE1,PEPTIDE1,3:R3-15:R3$$$V2.0)				> 10000	> 10000	
CC[C@H](C)[C@@H]1NC(=O)[C@@H]2CCCN2C(=O)[C@H](CO)NC(=O)[C@H](CCSC)NC(=O)[C@H](C)NC(=O)[C@H](Cc2cnc[nH]2)NC(=O)[C@@H]2CSSC[C@H](NC(=O)CN)C(=O)N[C@@H](CSSC[C@@H](C(N)=O)NC1=O)C(=O)N[C@@H](CO)C(=O)N[C@@H](Cc1cnc[nH]1)C(=O)N1CCC[C@H]1C(=O)N[C@@H](C(C)C)C(=O)N2 [TxID[S9H]] (HELM PEPTIDE1{G.C.C.S.H.P.V.C.H.A.M.S.P.I.C.[am]}$PEPTIDE1,PEPTIDE1,2:R3-8:R3|PEPTIDE1,PEPTIDE1,3:R3-15:R3$$$V2.0)				2.61	14.7	IC50 (rat α3β4 nAChR; α3β4 IC50): 1.96 nM; IC50 (rat α6/α3β4 nAChR; α6/α3β4 IC50): 18.7 nM
